# Measurements taken from paper PMC2636818, “Atomic structures and functional implications of the archaeal RecQ-like helicase Hjm” (BMC Structural Biology, 2009).
# T1: PfuHjm (Pyrococcus furiosus, UniProt O73946)
# T1 construct: gene hel308; full-length 720 residues, recombinant from pET21d (pHJM100) in E. coli BL21 codonPlus (DE3)-RIL; C-terminal ~60 (Form 1) or 20 (Form 2) residues disordered; one molecule per asymmetric unit in Form 1
# T1 sequence (O73946 1-720): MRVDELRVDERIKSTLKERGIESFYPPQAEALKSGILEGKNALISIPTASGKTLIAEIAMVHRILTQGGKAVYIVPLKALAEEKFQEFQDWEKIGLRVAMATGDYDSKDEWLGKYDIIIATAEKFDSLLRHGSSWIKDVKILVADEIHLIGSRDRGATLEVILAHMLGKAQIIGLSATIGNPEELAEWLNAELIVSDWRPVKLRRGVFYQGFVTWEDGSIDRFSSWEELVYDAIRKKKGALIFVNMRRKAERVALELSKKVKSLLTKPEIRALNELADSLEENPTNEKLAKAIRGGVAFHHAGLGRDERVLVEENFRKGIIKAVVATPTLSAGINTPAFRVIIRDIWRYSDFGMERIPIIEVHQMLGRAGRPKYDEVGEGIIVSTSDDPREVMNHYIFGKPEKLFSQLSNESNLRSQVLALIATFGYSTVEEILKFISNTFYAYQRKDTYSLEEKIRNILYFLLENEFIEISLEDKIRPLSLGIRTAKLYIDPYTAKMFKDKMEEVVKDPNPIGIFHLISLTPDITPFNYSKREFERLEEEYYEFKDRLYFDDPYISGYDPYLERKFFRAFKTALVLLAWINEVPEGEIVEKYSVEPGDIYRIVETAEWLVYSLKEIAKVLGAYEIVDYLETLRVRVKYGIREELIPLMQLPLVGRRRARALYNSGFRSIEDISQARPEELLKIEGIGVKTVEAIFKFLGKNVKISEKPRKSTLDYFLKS
# T2: PfuHjm (RecQ-like helicase Hjm, Hel308 family) (Pyrococcus furiosus, UniProt O73946 1-720)
# T2 sequence: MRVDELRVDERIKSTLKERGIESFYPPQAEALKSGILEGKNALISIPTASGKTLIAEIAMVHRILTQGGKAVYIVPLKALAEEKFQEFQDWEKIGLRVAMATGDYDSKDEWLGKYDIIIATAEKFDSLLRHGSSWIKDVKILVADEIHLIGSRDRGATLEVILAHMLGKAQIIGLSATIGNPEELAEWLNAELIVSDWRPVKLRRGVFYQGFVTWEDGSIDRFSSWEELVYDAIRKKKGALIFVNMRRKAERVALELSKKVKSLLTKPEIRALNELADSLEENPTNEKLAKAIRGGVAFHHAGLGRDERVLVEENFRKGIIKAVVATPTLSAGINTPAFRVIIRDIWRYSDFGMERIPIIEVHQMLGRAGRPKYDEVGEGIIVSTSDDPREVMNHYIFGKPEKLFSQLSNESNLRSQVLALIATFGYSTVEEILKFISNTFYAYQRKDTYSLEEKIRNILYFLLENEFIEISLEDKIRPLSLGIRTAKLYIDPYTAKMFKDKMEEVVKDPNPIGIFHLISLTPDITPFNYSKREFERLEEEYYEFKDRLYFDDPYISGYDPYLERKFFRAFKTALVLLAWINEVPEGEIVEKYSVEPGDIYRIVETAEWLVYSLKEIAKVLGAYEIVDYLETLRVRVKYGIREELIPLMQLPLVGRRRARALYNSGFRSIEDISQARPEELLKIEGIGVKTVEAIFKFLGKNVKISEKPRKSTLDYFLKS
# Assays:
# [1] = molecular target: T1, PfuHjm; assay: X-ray crystal structure, soaked crystal; type: binding; details: Form 1 crystal soaked with 1 mM ATPgammaS, ADP modelled as hydrolysed product; 100 mM citrate pH 5.0, 1.6 M ammonium sulfate; 2.4 A; nucleotide site
# [2] = molecular target: T2, PfuHjm (RecQ-like helicase Hjm, Hel308 …); assay: negative-stain single-particle EM (23 A) of complex purified by gel filtration; no nucleotide added; 50 mM Tris-HCl pH 8.0, 0.15 M NaCl, 0.5 mM EDTA, 1 mM DTT, 10% glycerol, room temperature, 20 min, 1:1 protein/DNA; details: protein: recombinant; hairpin with 3' overhang
molecule,measurement,setting,value
Nc1ncnc2c1ncn2[C@@H]1O[C@H](COP(=O)(O)OP(=O)(O)O)[C@@H](O)[C@H]1O [ADP],"X-ray crystal structure, soaked crystal",[1],"electron density corresponding to the hydrolyzed product ADP, rather than the soaked ATPγS"
AGCACTGCTATTCCCTAGCAGTGCTAGATGCACGAC (structured_DNA) [3' overhang hairpin DNA],binding result,[2],binds
